{"source": "paper PMC5064022", "about": "“KCNE1 induces fenestration in the Kv7.1/KCNE1 channel complex that allows for highly specific pharmacological targeting” (Nature Communications, 2016)", "key": {"Kv7.1/KCNE1": {"target": "Kv7.1/KCNE1 (Homo sapiens, UniProt P15382+P51787)", "experiment": "Two electrode voltage clamp of Kv7.1/KCNE1 currents in Xenopus oocytes", "type": "cell-based", "experimental": "(§1) Template cDNAs (wildtype or mutant human Kv7.1 in pSGEM, wildtype human KCNE1 in pSP64) were linearized with a suitable restriction enzyme (Nhe I/pSGEM, Eco RI/pSP64). cRNA was synthesized from 1 μg linearized cDNA by in vitro transcription (mMessage mMachine T7 or SP6 kit, Ambion, Life Technologies Darmstadt, Germany). cRNA concentrations were determined by photometry (Nanodrop, Peqlab, Erlangen, Germany) and cRNA quality was checked by agarose gel electrophoresis.\nOocytes were commercially obtained from EcoCyte Bioscience (Castrop-Rauxel, Germany). Injection of stage 4 or 5 oocytes was performed using a nanoliter injector 2000 (WPI, Berlin, Germany). For standard pharmacological measurements, each oocyte was injected with 5 ng Kv7.1 cRNA alone or with 1 ng KCNE1 cRNA. To investigate the influence of KCNE1 on AC-1 sensitivity of Kv7.1 tetramers, 5 ng Kv7.1 cRNA was injected with different amounts of KCNE1 cRNA (0 ng, 0.005 ng, 0.05 ng, 0.5 ng and 5 ng). Injected oocytes were maintained in an incubator at 17 °C for 4–5 days in standard Barth solution (EcoCyte Bioscience, Castrop-Rauxel, Germany) supplemented with 90 μg ml^−1 theophylline, 63 μg ml^−1 penicillin, 40 μg ml^−1 streptomycin, and 100 μg ml^−1 gentamycin until used for two electrode voltage clamp (TEVC) measurements.\nTEVC measurements were performed using a TurboTec-10CD amplifier (npi Electronic, Tamm, Germany) and an ITC-16 AD/DA-interface (Instrutech Corporation, Port Washington, New York, USA). Pulse and PulseFit software (HEKA, Lambrecht/Pfalz, Germany) was used for data acquisition and analysis. During TEVC recordings, oocytes were constantly perfused with control solution (ND96, containing in mM: 96 NaCl, 4 KCl, 1.8 CaCl2, 1 MgCl2, 5 mM HEPES, pH 7.6 supplemented 0.1–0.3% DMSO). AC solutions were freshly prepared in ND96 from a 10 mM DMSO stock solution. Glass capillaries were pulled to a fine point to produce current and voltage electrodes that were back-filled with 3 M KCl. When filled with this solution, electrode resistances ranged from 0.5–1.5 MΩ. Different voltage pulse protocols were used as follows: (1) To study the inhibitory effect of different AC derivatives, Kv7.1/KCNE1 currents were elicited by repetitive 7 s pulses to +40 mV applied every 30 s from a holding potential of −80 mV. (2) To analyse the voltage dependence of channel activation, currents were elicited by 10 s pulses to test voltages between −100 and +60 mV, applied in 20 mV increments from a holding potential of −80 mV. Tail currents were recorded at −120 mV. For control we always expressed KCNE1 alone along mutant channels and mutant currents were only taken into account when it reached at least 2.5- to 3-fold the size of the background Xenopus-Kv7.1/hKCNE1 currents.\nElectrophysiological data were analysed using PulseFit software (HEKA, Lambrecht/Pfalz, Germany) and GraphPad Prism (GraphPad Software, Inc., La Jolla, California, USA). Channel inhibition was determined as reduction of whole cell current amplitude at the end of a 7 s test pulse to +40 mV. The concentration of compound that caused half-maximal inhibition (IC50) were determined using the Hill equation: Idrug/Imax=1/(1+[C/IC50]^H), where Idrug is the current amplitude in the presence of the drug, Imax is the current amplitude before drug application, C is the drug concentration and H is the Hill coefficient."}, "homomeric Kv7.1": {"system": "T1, homomeric Kv7.1", "T1 construct": "expressed in transfected cells; host or cells: Xenopus oocytes, cRNA injected", "experiment": "TEVC, homomeric Kv7.1 channels in oocytes", "type": "cell-based, human", "experimental": "Figure 1 AC-1 inhibits Kv7.1 channels only in the presence of KCNE1. (a) Structure of adamantane compound AC-1. (b) Concentration-response relationship for inhibition of Kv7.1/KCNE channel currents by AC-1. Kv7.1/KCNE1 channel currents were activated by repetitive 7 s pulses to +40 mV applied from a holding potential of −80 mV. Inhibition was determined as percent change in current amplitude at the end of the depolarizing test pulse to +40 mV. Data were fitted (smooth curve) to the Hill equation (n=5–70,±s.e.m.). (c) The inhibitory effect of different AC-1 concentrations on Kv7.1/KCNE1 channels was determined by repetitive 7 s pulses to +40 mV applied from a holding potential of −80 mV. […] Inhibition of current was determined as described above and plotted against the amount (in ng) of cRNA injected into individual oocytes. […]\nas §1, with “electrophoresis. […]” for “electrophoresis.”"}}, "data": [{"smiles": "CC(C)(Oc1ccc(Cl)cc1)C(=O)NC1C2CC3CC1CC(NS(C)(=O)=O)(C3)C2", "note": "(centres unmarked) [AC-1, 2-(4-chlorophenoxy)-2-methyl-N-[5-[(methylsulfonyl)amino]tricyclo[3.3.1.13,7]dec-2-yl]-propanamide]", "values": [{"measurement": "effect on channel activation kinetics", "setting": "Kv7.1/KCNE1; 300 nM", "result": "strong deceleration of channel activation"}, {"measurement": "effect on rate of current deactivation", "setting": "Kv7.1/KCNE1; 300 nM, activated by 5 s pulse to +40 mV", "result": "does not alter the rate of current deactivation"}, {"measurement": "effect on rate of current deactivation", "setting": "Kv7.1/KCNE1; 300 nM, activated by 5 s pulse to −20 mV", "result": "decreases the rate of current deactivation"}, {"measurement": "inhibition at 10 µM", "setting": "Kv7.1/KCNE1; 10 µM, percent change in current amplitude at end of pulse to +40 mV", "result": "89.2 ± 1.2", "unit": "%"}, {"measurement": "Hill-coeff.", "setting": "Kv7.1/KCNE1; concentration-response at +40 mV, oocytes", "result": "1.2 ± 0.1"}, {"measurement": "maximum reduction of Kv7.1/KCNE1 channel currents", "setting": "Kv7.1/KCNE1; even at concentrations ∼100-fold greater than the IC50", "result": "about 90%"}, {"measurement": "higher voltages required to elicit measurable channel opening (depolarizing shift of activation)", "setting": "Kv7.1/KCNE1; in the presence of AC-1 (300 nM)", "result": "20–40 mV"}, {"measurement": "slope m of linear fit of τinhibition against AC-1 concentration", "setting": "Kv7.1/KCNE1; onset of inhibition, single exponential, y=m × log[AC−1]+b", "result": "−1.02±0.19"}, {"measurement": "IC50", "setting": "Kv7.1/KCNE1; wt, currents at end of 7 s pulse to +40 mV, holding −80 mV, oocytes, read-out: IC50 for inhibition of Kv7.1/KCNE1 channel currents", "result": 78.4, "unit": "nM"}, {"measurement": "effect on homomeric Kv7.1", "setting": "homomeric Kv7.1; 1 μM", "result": "does not affect"}, {"measurement": "effect of different concentrations on Kv7.1 homotetramers", "setting": "homomeric Kv7.1; different concentrations, up to 10 μM, +40 mV", "result": "Lack of effect"}]}]}
